Measurements published in PMC5765548 (Journal of medicinal chemistry, 2017).

How the values were obtained:
ALDH1A1 = target: T1, ALDH1A1 (Homo sapiens, UniProt P00352); assay: ALDH1A1 dehydrogenase activity, NADH formation at 340 nm; assay type: biochemical; settings: read-out: IC50 ALDH1A1; 100 μM propionaldehyde, 200 μM NAD+, 1% DMSO, pH 7.5, 25 °C
T1 sequence (P00352 1-501): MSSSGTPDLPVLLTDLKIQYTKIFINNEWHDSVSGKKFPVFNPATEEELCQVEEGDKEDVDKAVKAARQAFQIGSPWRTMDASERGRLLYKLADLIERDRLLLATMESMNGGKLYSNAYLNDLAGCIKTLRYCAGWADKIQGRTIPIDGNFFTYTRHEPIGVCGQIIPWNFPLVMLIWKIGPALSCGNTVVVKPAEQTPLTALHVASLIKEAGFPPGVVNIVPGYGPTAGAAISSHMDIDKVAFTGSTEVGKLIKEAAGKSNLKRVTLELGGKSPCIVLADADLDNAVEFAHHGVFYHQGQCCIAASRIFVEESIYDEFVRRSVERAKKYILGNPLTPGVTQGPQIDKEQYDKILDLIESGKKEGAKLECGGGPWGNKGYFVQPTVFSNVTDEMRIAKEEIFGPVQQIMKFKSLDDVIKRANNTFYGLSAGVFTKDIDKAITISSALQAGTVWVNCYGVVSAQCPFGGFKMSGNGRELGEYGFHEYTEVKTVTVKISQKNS

ALDH1L1 (rat) = target: T2, ALDH1L1 (rat) (Rattus norvegicus, UniProt P28037); assay: ALDH1L1 dehydrogenase activity, NADPH formation at 340 nm; assay type: biochemical; settings: read-out: IC50 ALDH1L1 (rat); 4 mM propionaldehyde, 500 μM NADP+
T2 sequence (P28037 1-902): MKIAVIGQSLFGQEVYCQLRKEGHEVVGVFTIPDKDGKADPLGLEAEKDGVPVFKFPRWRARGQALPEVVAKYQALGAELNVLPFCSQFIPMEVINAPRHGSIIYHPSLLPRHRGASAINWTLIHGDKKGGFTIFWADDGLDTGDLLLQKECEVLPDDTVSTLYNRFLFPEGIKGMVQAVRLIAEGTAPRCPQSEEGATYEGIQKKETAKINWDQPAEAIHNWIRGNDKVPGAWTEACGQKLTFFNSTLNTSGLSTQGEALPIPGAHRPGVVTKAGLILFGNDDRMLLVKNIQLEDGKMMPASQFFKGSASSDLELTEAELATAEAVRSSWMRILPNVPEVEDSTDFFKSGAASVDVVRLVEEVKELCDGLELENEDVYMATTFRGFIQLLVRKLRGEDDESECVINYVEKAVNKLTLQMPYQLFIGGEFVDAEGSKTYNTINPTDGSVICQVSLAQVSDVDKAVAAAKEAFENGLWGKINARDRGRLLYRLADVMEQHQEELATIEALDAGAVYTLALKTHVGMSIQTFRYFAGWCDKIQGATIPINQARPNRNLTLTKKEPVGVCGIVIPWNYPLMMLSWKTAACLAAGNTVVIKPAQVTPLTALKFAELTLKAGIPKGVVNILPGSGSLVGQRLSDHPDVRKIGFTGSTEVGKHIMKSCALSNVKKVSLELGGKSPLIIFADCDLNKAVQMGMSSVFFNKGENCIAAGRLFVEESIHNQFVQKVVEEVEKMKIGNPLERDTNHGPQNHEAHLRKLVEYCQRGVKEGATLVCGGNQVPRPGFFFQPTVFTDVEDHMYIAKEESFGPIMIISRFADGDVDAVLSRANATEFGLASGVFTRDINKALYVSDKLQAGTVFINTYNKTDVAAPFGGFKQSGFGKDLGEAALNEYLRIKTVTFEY

ALDH1B1 = target: T3, ALDH1B1 (Homo sapiens, UniProt P30837); settings: read-out: IC50 ALDH1B1; 200 μM propionaldehyde, 500 μM NAD+, 25 °C
T3 sequence (P30837 18-517): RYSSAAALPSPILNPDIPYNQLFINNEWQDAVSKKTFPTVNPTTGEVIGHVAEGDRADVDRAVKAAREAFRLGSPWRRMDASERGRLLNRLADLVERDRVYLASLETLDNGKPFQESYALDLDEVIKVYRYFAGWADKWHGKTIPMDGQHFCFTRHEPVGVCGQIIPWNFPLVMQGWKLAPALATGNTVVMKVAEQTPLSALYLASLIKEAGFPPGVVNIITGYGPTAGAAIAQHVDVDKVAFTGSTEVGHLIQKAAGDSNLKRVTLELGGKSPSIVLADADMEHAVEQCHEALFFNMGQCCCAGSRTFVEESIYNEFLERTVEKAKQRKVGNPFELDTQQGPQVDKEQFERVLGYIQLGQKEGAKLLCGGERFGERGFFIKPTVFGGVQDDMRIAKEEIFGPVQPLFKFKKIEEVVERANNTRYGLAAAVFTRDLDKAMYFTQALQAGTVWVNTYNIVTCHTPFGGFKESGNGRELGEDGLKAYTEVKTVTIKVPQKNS

ALDH1A2 = target: T4, ALDH1A2 (Homo sapiens, UniProt O94788); settings: read-out: IC50 ALDH1A2; 100 μM propionaldehyde, 200 μM NAD+, 1% DMSO, pH 7.5, 25 °C
T4 sequence (O94788 1-518): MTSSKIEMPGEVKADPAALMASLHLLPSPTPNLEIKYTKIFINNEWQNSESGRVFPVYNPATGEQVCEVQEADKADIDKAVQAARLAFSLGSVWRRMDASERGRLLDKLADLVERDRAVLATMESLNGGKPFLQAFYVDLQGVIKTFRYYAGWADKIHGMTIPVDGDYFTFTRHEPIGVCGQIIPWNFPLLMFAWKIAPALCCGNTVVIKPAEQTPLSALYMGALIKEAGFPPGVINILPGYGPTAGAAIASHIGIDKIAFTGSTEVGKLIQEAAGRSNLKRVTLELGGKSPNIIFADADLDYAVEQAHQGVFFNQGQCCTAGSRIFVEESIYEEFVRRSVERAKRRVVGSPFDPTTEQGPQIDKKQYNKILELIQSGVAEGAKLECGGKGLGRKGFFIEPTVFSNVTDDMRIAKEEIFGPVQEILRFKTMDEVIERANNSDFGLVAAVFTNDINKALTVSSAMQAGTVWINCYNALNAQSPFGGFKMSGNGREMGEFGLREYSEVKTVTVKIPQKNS

Measured: IC50

COC(=O)C(C)Oc1ccc2c(C)cc(=O)oc2c1 (stereo not shown) [Compound 4]
> 100 µM: ALDH1A1 | ALDH1L1 (rat) | ALDH1B1 | ALDH1A2
